In patent publication US9137998B2, “Pesticidal compositions and related methods” (DOW AGROSCIENCES LLC, priority 2013, dated 2015):

Assays:
[1] = test system: Sweetpotato Whitefly-Crawler (Bemisia tabaci) (WF) (BEMITA); experiment: Insecticidal test for Sweetpotato Whitefly-crawler (WF) in foliar spray assay on cotton plants; assay type: in vivo; conditions: Bemisia tabaci, 216 h, 200 ppm foliar spray, graded after 9 days, Abbott corrected % control, read-out: % Control (or Mortality) rating, WF
Description: Cotton plants (Gossypium hirsutum) grown in 3-inch pots, with 1 small (4-5 cm) true leaves, were used as test substrate. The plants were infested with 200-400 whitefly eggs 4-5 days prior to chemical application. Four pots with individual plants were used for each treatment. Test compounds (2 mg) were dissolved in 1 mL of acetone solvent, forming stock solutions of 2000 ppm test compound. The stock solutions were diluted 10× with 0.025% Tween 20 in H2O (diluents) to obtain the solution at 200 ppm test compound. A hand-held aspirator-type sprayer was used for spraying a solution to both sides of cotton leaves until runoff. Reference plants (solvent check) were sprayed with the diluent only containing 10% by volume of acetone solvent. Treated plants were held in a holding room for 9 days at approximately 25° C. and ambient relative humidity (RH) prior to grading. Evaluation was conducted by counting the number of live 3-4 nymph stage per plant under a microscope. Percent control was measured by using Abbott's correction formula (W. S. Abbott, “A Method of Computing the Effectiveness of an Insecticide” J. Econ. Entomol. 18 (1925), pp. 265-26′7) as follows. Corrected % Control=100*(X−Y)/X
X=No. of live nymphs on solvent check plants and
Y=No. of live nymphs on treated plants. […]

[2] = test system: Green Peach Aphid (Myzus persicae) (GPA) (MYZUPE); experiment: Bioassay for Green Peach Aphid (GPA), foliar spray on cabbage seedlings; assay type: in vivo; conditions: Myzus persicae, 72 h, 200 ppm foliar spray, graded after three days, Abbott corrected % control, read-out: % Control (or Mortality) rating, GPA
Description: Cabbage seedlings grown in 3-inch pots, with 2-3 small (3-5 cm) true leaves, were used as test substrate. The seedlings were infested with 20-50 GPA (wingless adult and nymph stages) one day prior to chemical application. Four pots with individual seedlings were used for each treatment. Test compounds (2 mg) were dissolved in 2 mL of acetone/methanol (1:1) solvent, forming stock solutions of 1000 ppm test compound. The stock solutions were diluted 5× with 0.025% Tween 20 in H2O to obtain the solution at 200 ppm test compound. A hand-held aspirator-type sprayer was used for spraying a solution to both sides of […] leaves until runoff. Reference plants (solvent check) were sprayed with the diluent only containing 20% by volume of acetone/methanol (1:1) solvent. Treated plants were held in a holding room for three days at approximately 25° C. and ambient relative humidity (RH) prior to grading. Evaluation was conducted by counting the number of live aphids per plant under a microscope. Percent control was measured by using Abbott's correction formula (W. S. Abbott, “A Method of Computing the Effectiveness of an Insecticide” J. Econ. Entomol. 18 (1925), pp. 265-267) as follows. Corrected % Control=100*(X−Y)/X
X=No. of live aphids on solvent check plants and
Y=No. of live aphids on treated plants
Biological Data for Green Peach Aphid (GPA) (MYZUPE) and Sweetpotato Whitefly-crawler (WF) (BEMITA)” (See Table Section).

Row | Structure (SMILES) | mortality at 200 ppm [1] [%] | mortality at 200 ppm [2] [%] | melting point [°C]
1 | C#CCN(C(=O)CC[S+]([O-])CCC(F)(F)F)c1sc(-c2cccnc2)nc1Cl (stereo not drawn) [FA6, N-(4-chloro-2-(pyridin-3-yl)thiazol-5-yl)-N-(prop-2-yn-1-yl)-3-((3,3,3trifluoropropyl)sulfinyl)propanamide] | 80 to 100 | 80 to 100 | –
2 | C#CCN(C(=O)OC(C)(C)C)c1sc(-c2cccnc2)nc1C [CA7, tert-Butyl (4-methyl-2-(pyridin-3-yl)thiazol-5-yl)(prop-2-yn-1-yl) carbamate] | 80 to 100 | 80 to 100 | –
3 | C#CCN(C(=O)OC(C)(C)C)c1sc(-c2cncnc2)nc1Cl [CA10, tert-Butyl (4-chloro-2-(pyrimidin-5-yl)thiazol-5-yl)(prop-2-yn-1-yl) carbamate] | – | – | 80 to 83
4 | C#CCN(C(=O)OC(C)(C)C)c1sc(Br)nc1C [CA4, tert-Butyl (2-bromo-4-methylthiazol-5-yl)(prop-2-yn-1-yl)carbamate] | – | – | 82 to 86
5 | C#CCN(C(=O)CCSCCC(F)(F)F)c1sc(-c2cncc(F)c2)nc1Cl [FA2, N-(4-Chloro-2-(5-fluoropyridin-3-yl)thiazol-5-yl)-N-(prop-2-yn-1-yl)-3-((3,3,3-trifluoropropyl)thio)propanamide] | 80 to 100 | 80 to 100 | –
6 | CC#CCN(C(=O)OC(C)(C)C)c1sc(Br)nc1C [CA6, tert-Butyl (2-bromo-4-methylthiazol-5-yl)(but-2-yn-1-yl)carbamate] | < 0 | 0 to 80 | –
7 | C#CCN(C(=O)CCSCC1CC1(F)F)c1sc(-c2cccnc2)nc1Cl (stereo not drawn) [Compound F8, N-(4-Chloro-2-(pyridin-3-yl)thiazol-5-yl)-3--(((2,2-difluorocyclopropyl)methyl)thio)-N-(prop-2-yn-1-yl)propanamide] | 80 to 100 | 80 to 100 | –
8 | C#CCNc1sc(-c2cccnc2)nc1C [CA14, 4-Methyl-N-(prop-2-yn-1-yl)-2-(pyridin-3-yl)thiazol-5-amine] | 0 to 80 | 0 to 80 | –
9 | C#CCN(C(=O)CC[S+](C)[O-])c1sc(-c2cccnc2)nc1C (stereo not drawn) [Compound P3, N-(4-Methyl-2-(pyridin-3-yl)thiazol-5-yl)-3-(methylsulfinyl)-N-(prop-2-yn-1-yl)propanamide] | 80 to 100 | 80 to 100 | –
10 | C#CCN(C(=O)CCSCCC(F)(F)F)c1sc(-c2cccnc2)nc1Cl [FA1, N-(4-Chloro-2-(pyridin-3-yl)thiazol-5-yl)-N-(prop-2-yn-1-yl)-3-((3,3,3-trifluoropropyl)thio) propanamide] | 80 to 100 | 80 to 100 | –
11 | C#CCN(C(=O)CC[S+]([O-])CCC(F)(F)F)c1sc(-c2cncc(F)c2)nc1Cl (stereo not drawn) [FA7, N-(4-Chloro-2-(5-fluoropyridin-3-yl)thiazol-5-yl)-N-(prop-2-yn-1-yl)-3-((3,3,3-trifluoropropyl)sulfinyl)propanamide] | 80 to 100 | 80 to 100 | –
12 | C#CCN(C(=O)OC(C)(C)C)c1sc(-c2cncc(F)c2)nc1Cl [CA9, tert-Butyl (4-chloro-2-(5-fluoropyridin-3-yl)thiazol-5-yl)(prop-2-yn-1-yl) carbamate] | 80 to 100 | 80 to 100 | –
13 | C#CCN(C(=O)CCSCCC(F)(F)F)c1sc(-c2cncnc2)nc1Cl [FA3, N-(4-chloro-2-(pyrimidin-5-yl)thiazol-5-yl)-N-(prop-2-yn-1-yl)-3-((3,3,3-trifluoropropyl)thio)propanamide] | 80 to 100 | 80 to 100 | –
14 | C#CCN(C(=O)CCSC)c1sc(-c2cncc(F)c2)nc1C [FA4, N-(2-(5-Fluoropyridin-3-yl)-4-methylthiazol-5-yl)-3-(methylthio)-N-(prop-2-yn-1-yl)propanamide] | 80 to 100 | 80 to 100 | –
15 | C#CCN(C(=O)CCSC)c1sc(-c2cccnc2)nc1Cl [Compound F7, N-(4-chloro-2-(pyridin-3-yl)thiazol-5-yl)-3-(methylthio)-N-(prop-2-yn-1-yl)propanamide] | 80 to 100 | 80 to 100 | –
16 | C#CCN(C(=O)C(C)CSC)c1sc(-c2cccnc2)nc1Cl (stereo not drawn) [Compound F9, N-(4-chloro-2-(pyridin-3-yl)thiazol-5-yl)-2-methyl-3-(methylthio)-N-(prop-2-yn-1-yl)propanamide] | 80 to 100 | 80 to 100 | –
17 | C#CCN(C(=O)C(C)SC)c1sc(-c2cccnc2)nc1Cl (stereo not drawn) [Compound F6, N-(4-chloro-2-(pyridin-3-yl)thiazol-5-yl)-2-(methylthio)-N-(prop-2-yn-1-yl)propanamide] | 80 to 100 | 80 to 100 | –
18 | C#CCN(C(=O)CC[S+]([O-])CC1CC1(F)F)c1sc(-c2cccnc2)nc1C (stereo not drawn) [FA9, 3-(((2,2-Difluorocyclopropyl)methyl)sulfinyl)-N-(4-methyl-2-(pyridin-3-yl)thiazol-5-yl)-N-(prop-2-yn-1-yl)propanamide] | 80 to 100 | 80 to 100 | –
19 | C#CCN(C(=O)CCS(=O)(=O)CCC(F)(F)F)c1sc(-c2cncc(F)c2)nc1Cl [FA11, N-(4-Chloro-2-(5-fluoropyridin-3-yl)thiazol-5-yl)-N-(prop-2-yn-1-yl)-3-((3,3,3-trifluoropropyl)sulfonyl)propanamide] | 80 to 100 | 80 to 100 | –
20 | C#CCN(C(=O)C1CC1(F)F)c1sc(-c2cccnc2)nc1Cl (stereo not drawn) [Compound F5, N-(4-chloro-2-(pyridin-3-yl)thiazol-5-yl)-2,2-difluoro-N-(prop-2-yn-1-yl)cyclopropanecarboxamide] | 80 to 100 | 80 to 100 | –
21 | C#CCN(C(=O)C1CC1)c1sc(-c2cccnc2)nc1Cl [Compound F2, N-(4-Chloro-2-(pyridin-3-yl)thiazol-5-yl)-N-(prop-2-yn-1-yl)cyclopropane carboxamide] | 80 to 100 | 80 to 100 | –
22 | C#CCN(C(=O)CC[S+]([O-])CCC(F)(F)F)c1sc(-c2cncnc2)nc1Cl (stereo not drawn) [FA8, N-(4-Chloro-2-(pyrimidin-5-yl)thiazol-5-yl)-N-(prop-2-yn-1-yl)-3-((3,3,3-trifluoropropyl)sulfinyl)propanamide] | 80 to 100 | 80 to 100 | –
